Assays:
[1] = biological target: T1, rat histamine H3 receptor (Rattus norvegicus (Rat), UniProt Q9QYN8); assay: FLIPR functional assay (Ca2+, HEK-293 cells coexpressing Gαqi5), rat H3 receptor; format: cell-based; settings: for Rat Maximum (%): FLIPR, percentage of the response to 1 μM RAMH; for EC50: FLIPR agonist potency
Source text: (§1) There are many methods available to show the effectiveness of compounds as histamine H3 receptor ligands. Histamine H3 receptors from mammalian species have been cloned. Methods to clone, express, and assess the potency and functional activity of such cloned genes are well known to those skilled in the art of molecular biology. […] In the present case, to determine the potency and effectiveness of representative compounds of this invention as histamine-H3 receptor ligands (H3 receptor ligands), the following tests were conducted according to previously described methods (see Esbenshade, et al., Journal of Pharmacology and Experimental Therapeutics 2003, 305, 887-896, Esbenshade, et al., Biochemical Pharmacology 2004, 68, 933-945, and in Krueger, et al., Journal of Pharmacology and Experimental Therapeutics 2005, 314, 271-281): histamine H3 receptors were cloned and stably expressed in HEK-293 (human embryonic kidney) cells coexpressing a Gαqi5. Before testing, cells were loaded with a Ca^+2 sensitive fluorescent dye, in this case Fluo-4. For partial agonist or full agonist ligands, addition of compound to the cells led to an increase in intracellular Ca^+2 which was detected by FLIPR (Fluorescence Imaging Plate Reader; Molecular Devices, Sunnyvale, Calif.) technology. The fluorescence intensities measured before addition of the test compound were subtracted from the fluorescence intensities at later time points. Peak response values determined at each concentration of ligand were expressed as a percentage of the response obtained with a maximal concentration (1 μM) of the full agonist R-α-methyl-histamine (RAMH). Concentration versus response data were analyzed to obtain compound potency as EC50 values for full and partial agonists.

[2] = biological target: T2, human histamine H3 receptor (Homo sapiens (Human), UniProt Q9Y5N1); assay: FLIPR functional assay (Ca2+, HEK-293 cells coexpressing Gαqi5), human H3 receptor; format: cell-based; settings: for EC50: FLIPR agonist potency; for Emax: HEK293, read-out: Human Maximum (%)
Source text: as §1

[3] = biological target: T2, human histamine H3 receptor; assay: Radioligand competition binding assay, human H3 receptor; settings: [3H]-N-α-methylhistamine competition binding
[4] = biological target: H3 receptor (Mus musculus (Mouse), UniProt P58406); assay: Mouse dipsogenia model (water intake); format: in vivo, CD-1 mouse
Description: Intraperitoneal administration of an H3 receptor agonist such as R-alpha-methyl-histamine elicits drinking in the hydrated CD-1 mouse (Fox, G. B.; et al. Pharmacology Biochemistry and Behavior 2002, 72, 741-750). This dipsogenic response is an indication of agonist activity in vivo and can be monitored by measuring the water intake of drug-treated animals in a 30 minute period.

[5] = system: acetic acid-induced writhing; assay: Acetic acid-induced writhing in mice; format: in vivo; settings: subcutaneous dose of 300 mg/kg, 30 minutes prior to 0.9% acetic acid ip
Description: Intraperitoneal injection of 0.9% acetic acid induces a writhing response that is quantified by counting the number of these induced characteristic lengthwise abdominal constrictions with torso elongations in a fixed time period (Langford, D. J.; et al. Science 2006, 312, 1967-1970). Reduction of the number of writhes by a compound administered 30 minutes prior to acetic acid exposure is a measure of analgesic activity.

[6] = biological target: rat H3R (Rattus norvegicus (Rat), UniProt Q9QYN8); assay: GTPγS functional assay, membranes from C6 cells expressing the rat H3R; format: biochemical; settings: for EC50: GTPγS agonist potency
Description: (§2) Membranes from HEK cells expressing the human H3R, or from C6 cells expressing the rat H3R, were prepared by homogenization in cold buffer containing 50 mM Tris-HCl (pH 7.4), 5 mM EDTA, 10 mM MgCl2, 1 mM benzamidine, 2 μg/ml aprotinin, 1 μg/ml leupeptin, and 1 μg/ml pepstatin. The homogenate was centrifuged at 40,000 g for 20 min at 4° C., and the resulting pellet was resuspended in 50 mM Tris-HCl (pH 7.4), 5 mM EDTA, and 10 mM MgCl2 and homogenized. Glycerol and bovine serum albumin were added to a final concentration of 10% glycerol and 1% bovine serum albumin. Membranes were diluted in GTPγS assay buffer (25 mM HEPES, 2.5 mM MgCl2, and 75 mM NaCl, pH 7.4) and 10 μg of membrane protein was incubated in a 96-well deep-well block in the presence of 5.0 μM unlabeled GDP, approximately 0.5 nM of [^35S]GTPγS, and increasing concentrations of test compounds. Samples were incubated at 37° C. for 5 min and the assays were terminated by the addition of cold buffer (50 mM Tris-HCl, 75 mM NaCl, and 2.5 mM MgCl2, pH 7.6) and subsequent harvesting onto a Packard Unifilter 96-well GF/B plate followed by extensive washing. Microscint 20 (PerkinElmer Life Sciences) was added to the samples, and bound [^35S]GTPγS was determined using the Topcount (Perkin Elmer Life Sciences). The percentage of [^35S]GTPγS bound in each sample was calculated as a percentage of that bound to control samples incubated in the absence of the H3R agonists (basal). Data were analyzed from experiments performed in triplicate using GraphPad Prism to obtain pEC50 values, Hill slopes, and maximal % response.

[7] = biological target: T1, rat histamine H3 receptor; assay: Radioligand competition binding assay, rat H3 receptor; settings: [3H]-N-α-methylhistamine competition binding
Description: To determine the effectiveness of representative compounds of this invention as histamine-3 receptor ligands (H3 receptor ligands), the following tests were conducted according to previously described methods (see European Journal of Pharmacology 1990, 188, 219-227; Journal of Pharmacology and Experimental Therapeutics 1995, 275, 598-604; Journal of Pharmacology and Experimental Therapeutics 1996, 276, 1009-1015; and Biochemical Pharmacology 1973, 22, 3099-3108).
The rat H3 receptor was cloned and expressed in cells, and competition binding assays carried out, according to methods previously described (see Esbenshade, et al. Journal of Pharmacology and Experimental Therapeutics 2005, 313, 165-175; Esbenshade et al., Biochemical Pharmacology 2004, 68, 933-945; and Krueger, et al. Journal of Pharmacology and Experimental Therapeutics 2005, 314, 271-281). Membranes were prepared from C6 or HEK293 cells, expressing the rat histamine H3 receptor, by homogenization on ice in TE buffer (50 mM Tris-HCl buffer, pH 7.4, containing 5 mM EDTA), 1 mM benzamidine, 2 μg/ml aprotinin, 1 μg/ml leupeptin, and 1 μg/ml pepstatin. The homogenate was centrifuged at 40,000 g for 20 minutes at 4° C. This step was repeated, and the resulting pellet was resuspended in TE buffer. Aliquots were frozen at −70° C. until needed. On the day of assay, membranes were thawed and diluted with TE buffer.
Membrane preparations were incubated with [^3H]-N-α-methylhistamine (0.5-1.0 nM) in the presence or absence of increasing concentrations of ligands for H3 receptor competition binding. The binding incubations were conducted in a final volume of 0.5 ml TE buffer at 25° C. and were terminated after 30 minutes. Thioperamide (30 μM) was used to define non-specific binding. All binding reactions were terminated by filtration under vacuum onto polyethylenimine (0.3%) presoaked Unifilters (Perkin Elmer Life Sciences) or Whatman GF/B filters followed by three brief washes with 2 ml of ice-cold TE buffer. Bound radiolabel was determined by liquid scintillation counting. For all of the radioligand competition binding assays, IC50 values and Hill slopes were determined by Hill transformation of the data and pKi values were determined by the Cheng-Prusoff equation.

[8] = biological target: human H3R (Homo sapiens (Human), UniProt Q9Y5N1); assay: GTPγS functional assay, membranes from HEK cells expressing the human H3R; format: biochemical; settings: for EC50: GTPγS agonist potency
Description: as §2

[9] = FLIPR, percentage of the response to 1 μM RAMH
[10] = [35S]GTPγS bound as percentage of basal

Sequence of human H3R (Q9Y5N1 whole entry): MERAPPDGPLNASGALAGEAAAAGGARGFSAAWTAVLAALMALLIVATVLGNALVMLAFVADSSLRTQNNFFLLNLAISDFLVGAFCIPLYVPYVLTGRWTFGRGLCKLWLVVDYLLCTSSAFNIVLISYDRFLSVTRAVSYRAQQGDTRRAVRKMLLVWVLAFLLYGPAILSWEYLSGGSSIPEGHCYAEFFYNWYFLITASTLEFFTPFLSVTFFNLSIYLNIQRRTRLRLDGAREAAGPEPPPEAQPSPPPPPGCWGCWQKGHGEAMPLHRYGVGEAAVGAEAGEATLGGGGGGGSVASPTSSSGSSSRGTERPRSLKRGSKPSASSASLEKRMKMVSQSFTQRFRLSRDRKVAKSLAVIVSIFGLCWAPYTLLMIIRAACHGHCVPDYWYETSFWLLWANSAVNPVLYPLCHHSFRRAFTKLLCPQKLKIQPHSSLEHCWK
T2 sequence (Q9Y5N1 whole entry): as above
T1 sequence (Q9QYN8 whole entry): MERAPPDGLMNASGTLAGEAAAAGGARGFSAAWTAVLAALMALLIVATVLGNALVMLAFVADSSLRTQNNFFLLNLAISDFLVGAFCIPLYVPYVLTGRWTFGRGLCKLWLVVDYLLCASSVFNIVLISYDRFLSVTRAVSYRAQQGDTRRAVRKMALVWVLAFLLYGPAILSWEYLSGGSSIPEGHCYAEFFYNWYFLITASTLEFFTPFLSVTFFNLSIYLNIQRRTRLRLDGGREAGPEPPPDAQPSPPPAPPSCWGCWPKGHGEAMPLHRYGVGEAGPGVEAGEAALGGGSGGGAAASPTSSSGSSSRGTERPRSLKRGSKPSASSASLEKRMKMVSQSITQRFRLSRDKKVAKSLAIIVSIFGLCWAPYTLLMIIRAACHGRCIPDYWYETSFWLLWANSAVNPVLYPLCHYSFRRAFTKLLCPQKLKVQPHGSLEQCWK
Sequence of rat H3R (Q9QYN8 whole entry): as above
Sequence of H3 receptor (P58406 whole entry): as the sequence (Q9QYN8 whole entry) above, with T15A, A286T, A290G, R387H, I389V counted along it

Rat Maximum (%) [1]	EC50 [2]	Emax [2, 9]	Ki [3]	effect on dipsogenic response to Example 1 ([4]; ciproxifan 3 μmol/kg, ip against Example 1 240 μmol/kg)	Emax ([6]; 5 min, [35S]GTPγS bound as percentage of basal, read-out: Rat Maximum (%))	Emax ([8]; 5 min, [35S]GTPγS bound as percentage of basal, read-out: Human Maximum (%))	SMILES	number of writhes [5]	EC50 [6]	Rat Maximum (%) [6, 10]	EC50 [1]	Ki [7]	water intake (dipsogenic response) ([4]; dose dependently at 80, 160, and 240 μmol/kg, ip, 30 minute period, hydrated CD-1 mouse)	Human Maximum (%) [2, 9]	EC50 [8]	Human Maximum (%) [8, 10]
74.0%	17700 nM	34.2%	> 363 nM				Nc1nccc(N[C@H]2CC[C@H](N)CC2)n1 [Example 16, Trans-N^4-(4-aminocyclohexyl)pyrimidine-2,4-diamine]									
				blocked			O=C(c1ccc(OCCCc2cnc[nH]2)cc1)C1CC1 [ciproxifan, reference compound]									
83.0%	254 nM	41%	302 nM		123%	122%	Cl.Cl.Nc1nccc(N2CCC(N)CC2)n1 [Example 20, 4-(4-aminopiperidin-1-yl)pyrimidin-2-amine dihydrochloride]		724 nM		51.7 nM	58.9 nM			1050 nM	

SMILES	Rat Maximum (%) [1]	EC50 [2]	Emax [2, 9]	Ki [3]	effect on dipsogenic response to Example 1 ([4]; ciproxifan 3 μmol/kg, ip against Example 1 240 μmol/kg)	Emax ([6]; 5 min, [35S]GTPγS bound as percentage of basal, read-out: Rat Maximum (%))	Emax ([8]; 5 min, [35S]GTPγS bound as percentage of basal, read-out: Human Maximum (%))	number of writhes [5]	EC50 [6]	Rat Maximum (%) [6, 10]	EC50 [1]	Ki [7]	water intake (dipsogenic response) ([4]; dose dependently at 80, 160, and 240 μmol/kg, ip, 30 minute period, hydrated CD-1 mouse)	Human Maximum (%) [2, 9]	EC50 [8]	Human Maximum (%) [8, 10]
NCCNc1ccnc(N)n1.O=C(O)C(O)C(O)C(=O)O [Example 1, N^4-(2-aminoethyl)pyrimidine-2,4-diamine(2R,3R)-2,3-dihydroxysuccinate]	100.0%	124 nM		63.1 nM				significantly reduced	174 nM	181%	5.47 nM	5.5 nM	induced water intake	60.2%	513 nM	147%
